For three molecules, IC50 results are on record in paper PMC7238114, “L-Type Amino Acid Transporter 1-Utilizing Prodrugs of Ketoprofen Can Efficiently Reduce Brain Prostaglandin Levels” (Pharmaceutics, 2020).

For this test, the system named is cyclooxygenase (COX; isoform not resolved, COX1/COX2). The experiment in a line: fluorometric COX peroxidase activity assay (Amplex Red) in BV2 cell lysate. In kind it is biochemical.
In general, IC50 refers to the midpoint of a concentration-inhibition curve. The molecule `CC(C(=O)NCC[C@H](N)C(=O)O)c1cccc(C(=O)c2ccccc2)c1` (stereo partly drawn) [PD3, pro-drug 3] came in with an IC50 of 2260 ± 1330 nM.

The molecule `CC(C(=O)NCCCC[C@H](N)C(=O)O)c1cccc(C(=O)c2ccccc2)c1` (stereo partly drawn) [PD2, pro-drug 2] showed an IC50 of 1050 ± 1210 nM.

Take `CC(C(=O)O)c1cccc(C(=O)c2ccccc2)c1` (stereo not drawn) [KPF, ketoprofen]: inhibition was half-maximal at 850 ± 1180 nM (IC50).
